The values that follow come from patent publication US9624167B2, “N-(4-hydroxy-4-methyl-cyclohexyl)-4-phenyl-benzenesulfonamides and N-(4-hydroxy-4-methyl-cyclohexyl)-4-(2-pyridyl)benzenesulfonamides and their therapeutic use” (PIMCO 2664 LIMITED, priority 2013, dated 2017).

The nature of data set [1]: Rodent pharmacokinetics study. Particulars: rat; for half-life: male, Sprague-Dawley, plasma, elimination phase half-life; for i.v. AUC: intravenous 1 mg/kg; for Bioavail, F: tentative oral bioavailability, F=AUC(p.o.)×Dose(i.v.)/AUC(i.v.)×Dose(p.o.); for p.o. AUC: oral 5 mg/kg in 0.5% CMC/0.1% Tween-80 (HMC-C-01-A in 2% dimethylacetamide/20% hydroxypropyl-β-cyclodextrin). It is filed as in vivo, Sprague-Dawley rats. Here is the method:
Absorption and metabolic stability were studied using an in vivo pharmacokinetics assay.
Three male Sprague-Dawley rats, aged 8-12 weeks, were dosed with test compounds administered either orally or intravenously (dose level of 1 mg/kg body weight intravenous or 5 mg/kg body weight orally). Test compounds were formulated in 0.5% carboxymethylcellulose (CMC)/0.1% Tween-80 for administration via the oral route, or in 5% DMSO/10% solutol in saline for administration via the intravenous route. For compound HMC-C-01-A the oral administration was formulated in 2% dimethylacetamide/20% hydroxypropyl-β-cyclodextrin in water. Animals were given free access to food throughout the study except for fasting overnight and until 2 hours post dose on the day of dosing.
Blood samples were taken from the retro-orbital plexus at the following time points and placed in microtubes containing 20% K2EDTA solution:
Oral Dosing: predose; 0.25, 0.5, 1, 2, 4, 6, 8, and 24 hours post dose.
Intravenous Dosing: predose; 0.08, 0.25, 0.5, 1, 2, 4, 8, and 24 hours post dose.
Blood samples were centrifuged to obtain plasma, which was transferred to a separate container and frozen at −20° C.
For analysis, samples were thawed at room temperature and prepared by protein precipitation with acetonitrile spiked with internal standard (500 ng/mL glipizide) in the ratio 1:4 with plasma. The samples were then vortexed for 5 minutes and centrifuged for 10 minutes at 20,600×g at 4° C. 100 μL of the supernatant was collected for analysis. The standard samples were prepared similarly, after spiking blank rat plasma samples with 10 μL of analyte.
The pharmacokinetic parameters for the test compounds were calculated by Phoenix WinNonlin version 6.3 (Pharsight Corp, CA) using standard non-compartmental methods. Peak plasma concentrations (Cmax) and time of the peak plasma concentration (Tmax) were the observed values. The area under the plasma concentration-time curve (AUC) was determined by use of the linear trapezoidal rule up to the last measurable concentration (AUClast) and thereafter by extrapolation of the terminal elimination phase to infinity (AUCinf). The terminal elimination rate constant (kel) was determined by regression analysis of the linear terminal portion of the log plasma concentration-time curve. The elimination phase half-life (t1/2) was calculated as 0.693/kel.

Data set [2] concerns GADD45a-GFP reporter in TK6 human lymphoblastoid cell line. In words: GreenScreen HC genotoxicity (GADD45a-GFP reporter). The class given is cell-based. From the text: GreenScreen HC is a mammalian cell-based assay for measuring the genotoxicity and cytotoxicity of chemical compounds and mixtures.
The term genotoxic is used to describe substances that are capable of causing damage to genetic material (DNA) within a cell, which may ultimately have mutagenic, carcinogenic or teratogenic effects in humans.
The GreenScreen assay reports genotoxic stress as an increase in fluorescence from a genetically modified derivative of the p53-competent TK6 human lymphoblastoid cell line. In the modified cells, regulatory DNA sequences which promote the transcription of the GADD45a gene control the expression of Green Fluorescent Protein (GFP). GADD45a has a central role in genomic integrity, and genotoxic stress induces its transcription. Exposure to a genotoxic compound therefore increases the expression of GFP, which is observed as an increase in fluorescence and which is monitored by fluorescent detection using a plate reader or flow cytometer. In the GreenScreen HC assay fluorescence is normalised to the optical absorbance measurement to correct for variation in cell yield caused by loss of cell viability or cytotoxicity. The statistically defined threshold for a positive result in the GreenScreen HC assay is 1.5, i.e., 50% induction over and above the baseline for the vehicle-treated control.
A dilution series of each test compound is generated in parallel in a 96-well, black microplate with an optically clear base. A standard genotoxic compound (methyl methanesulfonate, MMS) is added as an intra-plate quality control check. The plates are analysed at 24 hour and 48 hour time points using a microplate reader, which provides measurements of light absorbance and fluorescence for cells and solutions in the microplates wells.
In addition to measurements of cell viability and genotoxicity described above, the GreenScreen assay incorporates an assessment of the effects of metabolic activation in the assay, the “GreenScreen HC S9 assay”. To accomplish this, the cells are incubated both in the presence of and absence of the post-mitochondrial supernatant liver extract (known as “S9”). S9 is routinely used in genetic toxicology to supplement the test cells with mammalian phase I metabolism. To assess metabolic activation, compounds are incubated with the TK6 strain in the presence of 1% v/v S9 fraction mix for 3 hours with a subsequent 45 hour recovery time. After the recovery period, the GFP fluorescence signal and cell viability (assessed by propidium iodide uptake) are measured using a flow cytometer. Cyclophosphamide, a commonly used control in genotoxicity studies utilising metabolic activation, is used as the positive control in the assay. In the GreenScreen HC S9 assay, genotoxicity is evaluated by induction in GFP expression quantified using the mean sample fluorescence and cytotoxicity using the propidium iodide uptake assay described above. The statistically defined threshold for a positive genotoxicity result is 1.3, i.e. 30% induction over and above the baseline for the vehicle-treated control and the result is reported as positive or negative. Cytotoxic compounds are those that show an observed decrease in relative population survival below a significance threshold set at 90% compared to vehicle-treated control, at one or more test concentrations.
Stably transfected reporter cell lines were derived from the p53-competent human lymphoblastoid TK6 cell line. The reporter cell line carries an episomally replicating plasmid bearing the upstream promoter region and other regulatory sequences of the human GADD45a gene linked to a human optimised Green Fluorescent Protein (GFP) gene. The control cell line carries an identical plasmid except for the removal of 4 base pairs at the start of the EGFP gene, such that GFP is not produced. […]

Setting [3] is: GreenScreen HC, positive or negative.

As for `Cc1cc(S(=O)(=O)NC2CCC(C)(O)CC2)ccc1-c1ccc(F)cc1F` (single isomer, unassigned) [REF001, reference compound], in data set [1], the half-life was 7.2 h; the “i.v. AUC” value is 963 ng·min/mL; the “Bioavail, F” value was found to be 50%. Besides, the Genotoxicity entry in data set [2] (setting [3]) is given as “Positive”.
Taken in the same sequence, the figures for `Cc1cc(S(=O)(=O)N[C@H]2CC[C@H](O)CC2)ccc1-c1ccc(F)cc1F` [ABD735] were 3.8 h, 1081 ng·min/mL, 83% and “Negative”.
Regarding `O=S(=O)(N[C@H]1CC[C@H](O)CC1)c1ccc(-c2ncc(Cl)cc2Cl)cc1` [ABD836, reference compound], in data set [1], the half-life was 5.3 h; the “i.v. AUC” value is 2142 ng·min/mL; the p.o. AUC is 98.8 ng·h/mL; the “Bioavail, F” value came to 55%. For the same compound, in data set [2] (setting [3]), the Genotoxicity entry is recorded as “Positive”.
Turning to `C[C@]1(O)CC[C@@H](NS(=O)(=O)c2ccc(-c3ccc(F)cc3F)cc2)CC1` [ABD899, reference compound], in data set [1], the half-life was 10.8 h; the “i.v. AUC” value is 2133 ng·min/mL; the “Bioavail, F” value worked out at 50%. The Genotoxicity entry in data set [2] (lab scale batch, 1.3 mM to 0.3 pM) is on record as “Positive”. Moreover, the Genotoxicity entry in data set [2] (mid scale batch, 164 μM to 0.003 μM) was “Negative”.
With `C[C@]1(O)CC[C@H](NS(=O)(=O)c2ccc(-c3ccc(F)cc3F)cc2)CC1` [ABD900, reference compound], the Genotoxicity entry in data set [2] (setting [3]) is “Negative”.
For `C[C@]1(O)CC[C@H](NS(=O)(=O)c2ccc(-c3ccc(Cl)cc3C#N)cc2)CC1` [HMC-C-01-A, 4′-Chloro-2′-cyano-N-((1r,4r)-4-hydroxy-4-methylcyclohexyl)biphenyl-4-sulfonamide], in data set [1], the half-life was 6.2 h; the “i.v. AUC” value is listed as 900 ng·min/mL; the p.o. AUC came to 66.7 ng·h/mL; the “Bioavail, F” value is on record as 89%. The Genotoxicity result in data set [2] (setting [3]) is “Negative”.
In the case of `C[C@]1(O)CC[C@@H](NS(=O)(=O)c2ccc(-c3ccc(Cl)cc3C#N)cc2)CC1` [HMC-C-01-B, 4′-Chloro-2′-cyano-N-((1s,4s)-4-hydroxy-4-methylcyclohexyl)-[1,1′-biphenyl]-4-sulfonamide], in data set [1], the half-life is 5.7 h; the “i.v. AUC” value turned out to be 1539 ng·min/mL; the p.o. AUC was 85.3 ng·h/mL; the “Bioavail, F” value is recorded as 67%. Moreover, the Genotoxicity entry in data set [2] (setting [3]) was “Negative”.
Regarding `C[C@]1(O)CC[C@H](NS(=O)(=O)c2ccc(-c3ccc(F)cc3C(F)(F)F)cc2)CC1` [HMC-C-02-A, 4′-Fluoro-N-((1r,4r)-4-hydroxy-4-methylcyclohexyl)-2′-(trifluoromethyl)biphenyl-4-sulfonamide], in data set [1], the half-life is 3.2 h; the “i.v. AUC” value was 546 ng·min/mL; the p.o. AUC is 17.8 ng·h/mL; the “Bioavail, F” value amounted to 39%. The Genotoxicity entry in data set [2] (setting [3]) is listed as “Negative”.
Taken in the same sequence, the figures for `C[C@]1(O)CC[C@H](NS(=O)(=O)c2ccc(-c3c(F)cc(F)cc3F)cc2)CC1` [HMC-C-03-A, 2′,4′,6′-Trifluoro-N-((1r,4r)-4-hydroxy-4-methylcyclohexyl)biphenyl-4-sulfonamide] were 2.4 h, 1427 ng·min/mL, 65.2 ng·h/mL, 55% and “Negative”.
On to `C[C@]1(O)CC[C@@H](NS(=O)(=O)c2ccc(-c3c(F)cc(F)cc3F)cc2)CC1` [HMC-C-03-B, 2′,4′,6′-Trifluoro-N-((1s,4s)-4-hydroxy-4-methylcyclohexyl)-[1,1′-biphenyl]-4-sulfonamide], for which, in data set [1], the half-life is 8.3 h; the p.o. AUC turned out to be 157 ng·h/mL; the “Bioavail, F” value is recorded as 116%. Besides, in data set [2] (setting [3]), the Genotoxicity entry was “Positive”.
As for `C[C@]1(O)CC[C@@H](NS(=O)(=O)c2ccc(-c3ccc(F)cc3F)c(F)c2)CC1` [HMC-C-04-B, 2,2′,4′-Trifluoro-N-((1s,4s)-4-hydroxy-4-methylcyclohexyl)-[1,1′-biphenyl]-4-sulfonamide], in data set [1], the half-life was 5.5 h; the p.o. AUC was 156 ng·h/mL; the “Bioavail, F” value was found to be 59%.
With `C[C@]1(O)CC[C@H](NS(=O)(=O)c2ccc(-c3ncc(F)cc3F)c(F)c2)CC1` [HMC-N-01-A, 4-(3,5-Difluoropyridin-2-yl)-3-fluoro-N-((1r,4r)-4-hydroxy-4-methylcyclohexyl)benzenesulfonamide], in data set [1], the half-life was 13.4 h; the “i.v. AUC” value came out at 740 ng·min/mL; the p.o. AUC was 23.5 ng·h/mL; the “Bioavail, F” value is 64%. In addition, the Genotoxicity result in data set [2] (setting [3]) is “Negative”.
On to `C[C@]1(O)CC[C@@H](NS(=O)(=O)c2ccc(-c3ncc(F)cc3F)c(F)c2)CC1` [HMC-N-01-B, 4-(3,5-Difluoropyridin-2-yl)-3-fluoro-N-((1s,4s)-4-hydroxy-4-methylcyclohexyl)benzenesulfonamide], for which, in data set [1], the half-life is 9.1 h; the “i.v. AUC” value stood at 2824 ng·min/mL; the p.o. AUC was 141 ng·h/mL; the “Bioavail, F” value came out at 60%. The Genotoxicity entry in data set [2] (setting [3]) is “Negative”.
With `C[C@]1(O)CC[C@H](NS(=O)(=O)c2ccc(-c3ncc(F)cc3F)cc2)CC1` [HMC-N-02-A, 4-(3,5-Difluoropyridin-2-yl)-N-((1r,4r)-4-hydroxy-4-methylcyclohexyl)benzenesulfonamide], in data set [1], the half-life was 6.3 h; the p.o. AUC came to 55 ng·h/mL; the “Bioavail, F” value turned out to be 43%. For the same compound, the Genotoxicity entry in data set [2] (setting [3]) was “Negative”.
Regarding `C[C@]1(O)CC[C@@H](NS(=O)(=O)c2ccc(-c3ncc(F)cc3F)cc2)CC1` [HMC-N-02-B, 4-(3,5-Difluoropyridin-2-yl)-N-((1s,4s)-4-hydroxy-4-methylcyclohexyl)benzenesulfonamide], in data set [1], the half-life was 6 h; the “i.v. AUC” value is listed as 1931 ng·min/mL; the p.o. AUC stood at 107 ng·h/mL; the “Bioavail, F” value came out at 66%. Further, in data set [2] (setting [3]), the Genotoxicity entry is reported as “Negative”.
Consider `C[C@]1(O)CC[C@@H](NS(=O)(=O)c2ccc(-c3ncc(Cl)cc3Cl)cc2)CC1` [HMC-N-03-B, 4-(3,5-Dichloropyridin-2-yl)-N-((1s,4s)-4-hydroxy-4-methylcyclohexyl)benzenesulfonamide], for which, in data set [1], the half-life is 7.4 h; the p.o. AUC is 193 ng·h/mL; the “Bioavail, F” value worked out at 84%.

The half-life is how long it takes for the measured level to halve. Read a high half-life as slow loss.
